Reference: ChEMBL document CHEMBL1201862, “PubChem BioAssay data set” (2004)
Activity calls are given as the source filed them. Cut-off read from the data, not from the text of the source: actives have a measured IC50 and inactives only a lower limit.

Target: Envelope glycoprotein gp160 (Human immunodeficiency virus 1, UniProt Q6QLK5)
Assay: inhibitors of HIV fusion peptide binding, primary screen, biochemical, uHTS, fluorescence dequenching (AID 1986)

Chain of Envelope glycoprotein gp160 (Q6QLK5 whole entry, the tested form may be a part): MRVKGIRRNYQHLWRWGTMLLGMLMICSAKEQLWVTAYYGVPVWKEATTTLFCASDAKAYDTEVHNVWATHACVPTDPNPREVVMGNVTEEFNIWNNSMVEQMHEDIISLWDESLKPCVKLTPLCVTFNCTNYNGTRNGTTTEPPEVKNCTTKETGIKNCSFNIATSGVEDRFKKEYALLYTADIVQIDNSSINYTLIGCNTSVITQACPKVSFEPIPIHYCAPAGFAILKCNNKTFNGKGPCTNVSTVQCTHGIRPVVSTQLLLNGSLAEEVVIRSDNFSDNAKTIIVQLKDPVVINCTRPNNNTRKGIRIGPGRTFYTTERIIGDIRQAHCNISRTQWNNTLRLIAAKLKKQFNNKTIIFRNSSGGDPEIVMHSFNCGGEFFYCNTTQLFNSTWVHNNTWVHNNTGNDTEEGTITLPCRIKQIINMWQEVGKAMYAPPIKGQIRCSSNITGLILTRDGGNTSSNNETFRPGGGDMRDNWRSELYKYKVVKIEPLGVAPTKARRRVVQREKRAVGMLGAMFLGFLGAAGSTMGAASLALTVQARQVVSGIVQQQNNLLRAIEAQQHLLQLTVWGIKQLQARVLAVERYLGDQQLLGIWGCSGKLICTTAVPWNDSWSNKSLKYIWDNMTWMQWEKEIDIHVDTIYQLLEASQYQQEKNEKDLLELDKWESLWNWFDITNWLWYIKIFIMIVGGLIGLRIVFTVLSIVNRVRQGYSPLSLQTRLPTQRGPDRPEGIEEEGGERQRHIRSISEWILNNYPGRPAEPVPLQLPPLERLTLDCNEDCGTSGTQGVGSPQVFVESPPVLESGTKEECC

**Q.** O=C(O)CN1C(=O)/C(=C\c2cc(Br)ccc2OCc2ccc([N+](=O)[O-])cc2)SC1=S was tested. Which IC50 did it give?
**A.** 10.1 µM (active)

**Q.** For Cc1c(CC(=O)O)c(=O)oc2c(C)c3occ(-c4ccc(Br)cc4)c3cc12, which IC50 is on record?
**A.** 27.6 µM (active)

**Q.** For Cc1cc(/C=C2\C(=N)N3N=C(S(C)(=O)=O)SC3=NC2=O)c(C)n1Cc1ccccc1, which IC50 is on record?
**A.** 26.2 µM (active)

**Q.** For CC(C)(C)c1cc(-c2csc(Nc3ccccc3)[n+]2Cc2ccc(C(=O)O)cc2)cc(C(C)(C)C)c1O, which IC50 is on record?
**A.** 12.9 µM (active)
